What was measured:
[1] = In vitro skin penetration study (Franz diffusion cells, radiolabelled compositions); conditions: barrier-impaired skin; versus fusidic acid in a monoglyceride composition, or versus composition without stabilising agent
[2] = system: intracellular and extracellular M. leprae; conditions: cited from earlier work

SMILES	degree of retention in dermis and epidermis, comparison [1]	potency against M. leprae [2]
CC(=O)O[C@H]1C[C@@]2(C)[C@@H](C[C@@H](O)[C@H]3[C@@]4(C)CC[C@@H](O)[C@@H](C)[C@@H]4CC[C@@]32C)/C1=C(\CCC(Br)=C(C)C)C(=O)O [11-^3H 24-bromo-fusidic acid, 24-Bromo-fusidic acid]	significantly higher	–
CC(=O)O[C@H]1C[C@@]2(C)[C@@H](C[C@@H](O)[C@H]3[C@@]4(C)CC[C@@H](O)[C@@H](C)[C@@H]4CC[C@@]32C)/C1=C(\CCC=C(C)C)C(=O)O [fusidic acid, Fusidic acid]	–	highly potent

— US20090054389A1, “Topical Composition Comprising an Antibacterial Substance” (Leo Pharma A/S, priority 2006, published 2009)
